# According to patent US20240400542A1 (University of Virginia Patent Foundation, priority 2021, published 2024):
# Biological target: T1, Cytochrome c (Homo sapiens, UniProt P99999)
# T1 construct: endogenous in cells; host or cells: HEK293T
# Experiment: SILAC competitive chemical proteomic assay (TH211 probe, LC-MS/MS)
# Assay type: cell-based
# Details: TH207 inhibitor, HEK293T soluble fraction
# Method: The light and heavy proteomes (2.3 mg/mL, 432 μL) prepared from HEK293T cells that were pretreated in situ with vehicle (DMSO) or the inhibitor (2 μM), respectively, at 37° C. for 1 hr followed by probe TH211 treatment (50 μM) for 2 h, were directly were subjected to click reaction with the desthiobiotin-PEG3-azide (10 mM in DMSO, 10 μL, final concentration 200 μM) in the presence of TCEP (50 mM, 10 μL), TBTA (1.7 mM, 33 μL) and CuSO4 (50 mM, 10 μL) at room temperature for 1 hr. The light and the heavy samples were mixed in the chloroform-methanol extraction step. The subsequent steps including reduction with dithiothreitol, alkylation with iodoacetamide, digestion with Trypsin/Lys-C, enrichment with avidin beads were conducted as previously described^26.
# T1 sequence (P99999 whole entry): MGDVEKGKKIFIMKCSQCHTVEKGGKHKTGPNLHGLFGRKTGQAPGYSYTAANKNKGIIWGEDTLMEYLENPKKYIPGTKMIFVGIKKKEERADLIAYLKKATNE
smiles,measurement,setting,value
"Cc1ccc(S(=O)(=O)n2cc(CCN3CCC(=C(c4ccc(F)cc4)c4ccc(F)cc4)CC3)nn2)cc1 [TH207, 4-(Bis(4-fluorophenyl)methylene)-1-(2-(1-tosyl-1H-1,2,3-triazol-4-yl)ethyl)piperidine]","Normalized SILAC ratio (SR), Cytochrome c K28",P99999.2 lysine 28,1.4
same,"Normalized SILAC ratio (SR), Cytochrome c K40",P99999.2 lysine 40,1.5
same,"Normalized SILAC ratio (SR), Cytochrome c K54",P99999.2 lysine 54,1.8
same,"Normalized SILAC ratio (SR), Cytochrome c Y49",P99999.2 tyrosine 49,1.5
